Drawing on ChEMBL document CHEMBL4602645, “Design, synthesis and evaluation of diosgenin carbamate derivatives as multitarget anti-Alzheimer's disease agents” (2020), this text covers viability, Activity and inhibition for 3 molecules.

Test [1] deals with SH-SY5Y. As to the kind of experiment: Neuroprotective activity against H2O2-induced cytotoxicity in human SH-SY5Y cells assessed as cell viability at 1 mM pretreated for 2 hrs followed by H2O2 challenge and measured after MTT assay relative to control. As to conditions: read-out: Activity. In kind it is functional. (Formazan colour is commonly taken as a measure of viable cells.)

For test [2], the system named is SH-SY5Y. Description: Neuroprotective activity against H2O2-induced cytotoxicity in human SH-SY5Y cells assessed as cell viability at 10 uM pretreated for 2 hrs followed by H2O2 challenge and measured after 24 hrs by MTT assay relative to control. As to conditions: read-out: Activity. In kind it is functional.
The test system of test [3] is SH-SY5Y. As to the kind of experiment: Neuroprotective activity against H2O2-induced toxicity in human SH-SY5Y cells assessed as decrease in cell viability at 0.1 to 100 uM pretreated for 2 hrs followed by H2O2 challenge and measured after 12 hrs by MTT assay. In kind it is functional, cell-based.
For test [4], the system named is SH-SY5Y. Description: Neuroprotective activity in human SH-SY5Y cells assessed as inhibition of H2O2-induced decreased nerve filaments at 1 to 50 uM pretreated for 2 hrs followed by H2O2 challenge and measured after 12 hrs by fluorescence microscopy analysis. In kind it is functional, cell-based.
For test [5], the system named is Mus musculus. Description: Neuroprotective activity in ICR mouse model of D-galactose-induced aging assessed as increase in number of […] cells at 6 to 30 mg/kg, ig QD measured after 8 weeks by hematoxylin-eosin staining based assay. In kind it is functional, organism-based.
Test [6] relates to RAW264.7. Description: Antiinflammatory activity in mouse RAW264.7 cells assessed as decrease in LPS-induced IL-6 expression by Western blot analysis. In kind it is functional, cell-based. A general note: A western blot detects proteins with antibodies after separation by electrophoresis.
Test [7] deals with SH-SY5Y. Description: Neuroprotective activity in human SH-SY5Y cells assessed as inhibition of H2O2-induced shortened nerve filaments at 1 to 50 uM pretreated for 2 hrs followed by H2O2 challenge and measured after 12 hrs by fluorescence microscopy analysis. In kind it is functional, cell-based.
For test [8], the system named is Mus musculus. Description: Neuroprotective activity in ICR mouse model of D-galactose-induced aging assessed as reduction in degeneration of neuron in hippocampal region at 6 to 30 mg/kg, ig QD measured after 8 weeks by hematoxylin-eosin staining based assay. In kind it is functional, organism-based.
A further test relates to Astrocyte. Description: Neuroprotective activity against amyloid-beta42-induced cell death in astrocytes isolated from cortex of Sprague-Dawley rat assessed as decrease in cell viability at 5 to 100 uM pretreated for 2 hrs followed by amyloid-beta42 stimulation measured after 24 hrs by MTT assay. In kind it is functional, cell-based.
For test [9], the system named is SH-SY5Y. Description: Effect on mitochondrial membrane potential in human SH-SY5Y cells assessed as […] in H2O2-incuded mitochondrial membrane potential loss by measuring fluorescence shift at 5 to 50 uM pretreated for 2 hrs followed by H2O2 challenge measured after 12 hrs by fluorescence microscopy analysis. In kind it is functional, cell-based.
For test [10], the system named is Mus musculus. As to the kind of experiment: Antioxidant activity in ICR mouse model of D-galactose-induced aging assessed as increase in superoxide dismutase level in serum at 6 to 30 mg/kg, ig QD measured after 8 weeks. In kind it is functional, organism-based.
The subject of test [11] is RAW264.7. Description: Antiinflammatory activity in mouse RAW264.7 cells assessed as decrease in LPS-induced IL-1beta expression by Western blot analysis. In kind it is functional, cell-based.
Test [12] concerns RAW264.7. Description: Antiinflammatory activity in mouse RAW264.7 cells assessed as inhibition of LPS-induced nitric oxide production at 10 uM preincubated for 2 hrs followed by LPS stimulation and measured after 24 hrs by Griess assay relative to control. In kind it is functional.
For test [13], the system named is RAW264.7. As to the kind of experiment: Antiinflammatory activity in mouse RAW264.7 cells assessed as decrease in LPS-induced TNFalpha expression by Western blot analysis. In kind it is functional, cell-based.
Test [14] relates to SH-SY5Y. As to the kind of experiment: Effect on mitochondrial ROS generation in human SH-SY5Y cells assessed as decrease in H2O2-induced mitochondrial ROS level by measuring fluorescence intensity at 5 to 50 uM incubated for 2 hrs by DCFDA probe based fluorescence microscopy analysis. In kind it is functional, cell-based.
Test [15] has as its system Mus musculus. As to the kind of experiment: Improvement in learning and spatial memory in ICR mouse model of D-galactose-induced aging assessed as effect on time spent on quadrant at 6 to 30 mg/kg, ig QD measured after 8 weeks by Morris water maze test. In kind it is functional, organism-based.

For orientation: inhibition means the percentage by which the read-out fell short of the control.

Active and inactive are the calls of the source. No cut-off for these calls is given here.

On to `CC(=O)N[C@@H](CS)C(=O)O` [ACETYLCYSTEINE], for which the viability at 1000 µM in the test on SH-SY5Y [1] was 37.1%.

As to `C[C@@H]1CC[C@@]2(OC1)O[C@H]1C[C@H]3[C@@H]4CC=C5C[C@@H](OC(=O)NCc6ccccc6)CC[C@]5(C)[C@H]4CC[C@]3(C)[C@H]1[C@@H]2C`, the viability at 10 µM with SH-SY5Y [2] came to 75.3%. The outcome with SH-SY5Y [3], in the test on SH-SY5Y [4], in the test with Mus musculus [5], in the test on SH-SY5Y [7], with Mus musculus [8] and in the test on Astrocyte was Active. The result with SH-SY5Y [9], with Mus musculus [10], in the test on SH-SY5Y [14] and in the test with Mus musculus [15] was Active. The Activity entry in the test with RAW264.7 [6], with RAW264.7 [11] and with RAW264.7 [13] was “Dose-dependent effect” in each case. Further, in the test with RAW264.7 [12], the inhibition at 10 µM amounted to 22.7%.

Consider `CCCCNC(=O)O[C@H]1CC[C@@]2(C)C(=CC[C@H]3[C@@H]4C[C@@H]5O[C@]6(CC[C@@H](C)CO6)[C@@H](C)[C@@H]5[C@@]4(C)CC[C@@H]32)C1`, for which the viability at 10 µM in the test with SH-SY5Y [2] turned out to be 47.8%. Besides, in the test with RAW264.7 [12], the inhibition at 10 µM amounted to 11%.
